The nature of data set [1]: Biodistribution study (SPECT/CT) in HT-29 tumor-bearing mice. Format: in vivo, NMRI nude mice. The settings on record: female, NMRI nude, mouse, in vivo, iv, total radioactivity, HT-29, In-111-labeled, Mean ± SEM. The method, then:
(§1) The effect on tumor uptake of prior injection of gelofusine for kidney protection was investigated in mice bearing the SK-RC-52 tumor. Biodistribution was evaluated using in vivo SPECT/CT imaging. Prior to the in vivo study the compounds (ligands) were initially radiolabeled with In-111 and the stability of radiolabeled compounds was evaluated in buffer at three different timepoints.
(§2) The study was performed in female NMRI nude mice (approximately 6 weeks of age) from Janvier Labs, France, housed up to 5 mice per cage.
(§3) The column was washed with 2 mL water, and then the final product was eluted from the column in EtOH solution (50%) • The sample was formulated in PBS to the final concentration of 150 MBq/mL and 5 nmol/mL.
(§4) SK-RC-52 cells were cultured in RPMI 1640 with GlutaMax-I (Thermo Fisher Scientific #61870044) supplemented with 10% fetal bovine serum+1% penicillin/streptomycin, harvested, washed twice in RPMI 1640 and resuspended at 2×10^7 cells/mL in RPMI 1640. HT-29 cells were cultured in McCoy's 5a Medium Modified (Sigma #M9309). For inoculation of HT-29 cells, cells were harvested, washed twice in PBS and resuspended at 5×10^7 cells/mL in PBS. Cells were kept on ice until inoculation.
(§5) Animals were anaesthetized (isoflurane, 2-4% in ambient air supplemented with 100% 02) prior to tumor inoculation. The tumor cells (100 μL suspension of either SK-RC-52 cells (2×10^6 cells/animal) or HT-29 cells (5×10^6 cells/animal)) were subcutaneously inoculated in the right flank using a 1-mL syringe equipped with a 27 G needle. Tumor growth and animal weight were measured twice per week. Tumor size was measured by caliper and the volume was estimated using the following formula: 0.52×(length×width^2). When tumor sizes reached 150-250 mm^3, animals were randomized into groups (n=3) of similar average tumor volume and body weight.
(§6) Animals were injected intravenously with In-111-labeled compounds (single bolus, 22.3-31.2 MBq, ˜1 nmol ligand, injection volume: 100 μL) in the lateral tail vein using a 29 G syringe.
(§7) CT was performed with helical scan, 300 ms exposure, reconstruction resolution of 250 μm. SPECT was performed with multi-pinhole scan and a 30 s frame time. For the quantification of the radioactivity uptake, regions of interests (ROIs) were drawn over the tumor, kidney, liver, and heart (estimate of blood) identified on the images. Uptake was expressed as percent of injected dose per gram tissue (% ID/g).

The test system of the next data set is HT-29 tumor. Described as above. Format: in vivo, NMRI nude mice. The settings on record: HT-29, In-111-labeled. On the procedure: as §1, §2, §3, §4, §5, §6, §7
Data set [2] is described as follows: Pharmacokinetic characterization in healthy dogs. It counts as in vivo, beagle dogs. The note with it: dog; for AUC(0-inf) / Cmax / clearance / half-life / Vd / CL renal: male, beagle, iv; for AUC(0-inf) / Cmax / clearance / half-life / Vd: plasma; for half-life: read-out: terminal half-life (T1/2) (converted); for Vd: read-out: volume of distribution; for CL renal: urine and plasma, read-out: estimated renal clearance. The method, then: The pharmacokinetics of DPI-4452 after a single intravenous (i.v.) dose was investigated in healthy dogs. […] Plasma and urine samples collected after dosing were analyzed using a LC-HRMS (liquid chromatography coupled with high-resolution mass spectrometry) assay method. Concentration values were used for pharmacokinetic calculations.
DPI 4452 was formulated in 0.1 M HEPES pH 7.0 at the final concentrations of 0.05 and 0.4 mg/mL for dosing at 0.1 and 0.8 mg/kg, respectively. Male beagle dogs (3 animals per dose level; overall 8.9 to 12.4 kg body weight) were administered intravenously (bolus) in a 2 mL/kg dosing volume. Blood samples were collected in K2EDTA tubes at 5 min, 15 min, 30 min, 1 h, 2 h, 4 h, 6 h, 24 h, and urine was collected over 24 hours post dose. The blood samples were kept on wet ice until plasma separation by centrifugation within 60 min after sampling. The plasma samples were transferred into plastic tubes, frozen and stored at −80° C. until analysis.
Plasma and urine samples were analyzed by […] after solid phase extraction, using DPI-4501 as internal standard. Chromatographic separation was run on a Waters Acquity HSS T3 C18 2.1×50 mm, 1.8 μm column. Detection was achieved on a Sciex API6600 TOF mass spectrometer. The lower limit of quantification was 2.00 ng/mL in urine and plasma.
The NCA pharmacokinetic analysis of plasma concentration data was conducted using Phoenix WinNonlin 6.3 software. Nominal doses were used for all animals. The terminal phase half-life (T1/2) was calculated by least-squares regression analysis of the terminal linear part of the log concentration-time curve. The area under the plasma concentration-time curve (AUC) was determined with the linear trapezoidal rule for increasing values and log trapezoidal rule for decreasing values up to the last measurable concentration.

Structures are written as SMILES. Like-named read-outs stand apart in the source and are kept apart here.

As a reminder, the AUC(0-inf) is the area under the concentration-time curve extrapolated to infinity. Low values mean less exposure, high ones more exposure. By Cmax is commonly meant the maximum level reached in the sampled fluid or tissue. The term clearance denotes a measure of how efficiently the substance is removed, as volume per time. As for `CC(C)C[C@@H]1NC(=O)[C@H](Cc2cccc(NC(=O)CCCS(N)(=O)=O)c2)NC(=O)[C@H](CC(=O)O)NC(=O)[C@H]2CCCN2C(=O)[C@H](CCC(=O)O)NC(=O)[C@@H](NC(=O)[C@H](CCC(N)=O)NC(=O)CN2CCN(C(=O)CN3CCN(CC(=O)O)CCN(CC(=O)O)CCN(CC(=O)O)CC3)CC2)CSCc2cccc(c2)CSC[C@@H](C(N)=O)NC(=O)[C@H](CO)NC(=O)[C@H](Cc2c[nH]c3ccccc23)NC(=O)[C@H]([C@@H](C)O)NC1=O` [DPI-4452, DOTA-PPAc-Gln-[Cys(3MeBn)-Glu-pro-Asp-Af3(Cpsu)-Leu-Thr-Trp-Ser-Cys]-NH2], the tissue uptake at 4 h in data set [1] (read-out: Blood uptake at 4 h p.i.) came out at 0.04 ± 0.002 %ID/g. Besides, the tissue uptake at 24 h in data set [1] (read-out: Kidney uptake at 24 h p.i.) was determined as 1.41 ± 0.11 %ID/g. In addition, in data set [1] (read-out: Liver uptake at 4 h p.i.), the tissue uptake at 4 h was determined as 0.12 ± 0.005 %ID/g. In addition, the “Time to peak uptake in tumor” value in the data set with HT-29 tumor was 2 h. Besides, the “% remaining tumor uptake at 24 h p.i.” value with HT-29 tumor (Mean ± SEM) turned out to be 65.8 ± 3.8%. For the same compound, in data set [2] (i.v. 0.1 mg/kg), the “time up to which plasma concentration was quantifiable” value is given as “up to 2 h”, the AUC(0-inf) came to 133 ng·h/mL, the concentration peaked (Cmax) at 377 ng/mL and the clearance turned out to be 12.7 mL/min/kg. In data set [2] (i.v. 0.1 mg/kg), the half-life was 22.8 min, the Vd came out at 0.26 L/kg and the CL renal is 0.0344 mL/min/kg. Moreover, in data set [2] (i.v. 0.8 mg/kg), the “time up to which plasma concentration was quantifiable” value is given as not above 4 h, the area under the curve AUC(0-inf) stood at 1760 ng·h/mL, the Cmax was 4430 ng/mL and the clearance came out at 7.6 mL/min/kg. Also, in data set [2] (i.v. 0.8 mg/kg), the half-life was 28.8 min, the Vd amounted to 0.19 L/kg and the CL renal is 0.0114 mL/min/kg.

The record behind these values is US20250339569A1, “CARBONIC ANHYDRASE IX LIGANDS” (priority 2021, published 2025).
